Patent US12214059B2, “Cleavable radioligands for targeting cell surface receptors and uses thereof” (Full-Life Te[…] Limited, priority 2021, dated 2025)

Key:
PSMA = target: T1, PSMA (Homo sapiens, UniProt Q04609); experiment: Cell-based radioligand competitive binding assay (^125I-C-8, LNCaP cells); conditions: for Relative Binding Affinity: C-1 = 1.00
T1 construct: host or cells: LNCaP cells
Experimental: The culture medium was replaced with fresh medium every 2-3 days. Experiments were performed with cells at 70-80% confluence.
The final volume in each well was maintained at 200 μL and insufficient volume was adjusted by the binding buffer.

[1] = Ex-vivo mouse plasma stability study of ^177Lu-labeled compounds; assay type: in vitro ADME; conditions: 37° C.
Experimental: Plasma Stability Study (Mouse and Human)
Mouse blood was collected via cardiac puncture of the left ventricle. Blood was placed into heparin-coated microfuge tubes and then centrifuged at 3500 rpm for 10 min to separate plasma for stability studies. Human plasma was purchased directly.
At each time point (0, 1, 2, 4, 24, 48 72 h), an aliquot of 25 μL sample was taken and mixed with 100 μL methanol containing 1% formic acid, vertex for 30-60 sec, then centrifuged at 20000 rpm for 10 min. 100 μL supernatant was collected and diluted with 40 μL H2O. 100 μL of the resulting mixture was injected to radio-HPLC for stability assessment, as shown examples FIG. 2 and FIG. 3. The best-fit T½ value of test compounds were calculated by fitting the data with linear or non-linear regression using GraphPad Prism 8.0.1.

[2] = system: PC-3 PIP tumor-bearing mice; experiment: Biodistribution study in SCID mice bearing PC3-PIP tumor; assay type: in vivo, mouse; conditions: PC3 PIP tumor-bearing mice
Experimental: Biodistribution Study in SCID Mice Bearing PC3-PIP Tumor
Severe combined immunodeficient (ICR-SCID) mice from the Institute of Cancer Research (Taconic Farms, Germantown, NY) were utilized for these studies. […] These mice received bilateral subcutaneous rear flank injections of approximately 10×10^6 PC-3 PIP cells (prostate cancer cell PC-3 stably expressing human PSMA) suspended in 100 μL of 0.9% NaCl. […] The tissues and organs were weighed, counted in a PerkinElmer Wizard 3 automatic γ counter, and the percent injected dose (% ID) and % ID/g of each organ or tissue were calculated, as shown in Tables 5-24 and FIG. 1 and FIG. 2.

LNCap tumor-bearing mice = experiment: Biodistribution study in CB-17 SCID mice bearing LNCap tumor; assay type: in vivo, mouse; conditions: LNCap tumor-bearing mice
Experimental: Biodistribution Study in CB-17 SCID Mice Bearing LNCap Tumor
All animal care and experimental procedure were performed by following the animal protocols approved by the ethics committee of China Institute of Radiation Protection. The CB-17 SCID mice (Charles River, Beijing) were utilized for these studies. […] These mice received subcutaneous rear flank injections of approximately 4×10^6 LNCap cells suspended in 200 μL of phosphate-buffered saline (PBS) and Matrigel (Corning) (1/1).

T1 sequence (Q04609 whole entry): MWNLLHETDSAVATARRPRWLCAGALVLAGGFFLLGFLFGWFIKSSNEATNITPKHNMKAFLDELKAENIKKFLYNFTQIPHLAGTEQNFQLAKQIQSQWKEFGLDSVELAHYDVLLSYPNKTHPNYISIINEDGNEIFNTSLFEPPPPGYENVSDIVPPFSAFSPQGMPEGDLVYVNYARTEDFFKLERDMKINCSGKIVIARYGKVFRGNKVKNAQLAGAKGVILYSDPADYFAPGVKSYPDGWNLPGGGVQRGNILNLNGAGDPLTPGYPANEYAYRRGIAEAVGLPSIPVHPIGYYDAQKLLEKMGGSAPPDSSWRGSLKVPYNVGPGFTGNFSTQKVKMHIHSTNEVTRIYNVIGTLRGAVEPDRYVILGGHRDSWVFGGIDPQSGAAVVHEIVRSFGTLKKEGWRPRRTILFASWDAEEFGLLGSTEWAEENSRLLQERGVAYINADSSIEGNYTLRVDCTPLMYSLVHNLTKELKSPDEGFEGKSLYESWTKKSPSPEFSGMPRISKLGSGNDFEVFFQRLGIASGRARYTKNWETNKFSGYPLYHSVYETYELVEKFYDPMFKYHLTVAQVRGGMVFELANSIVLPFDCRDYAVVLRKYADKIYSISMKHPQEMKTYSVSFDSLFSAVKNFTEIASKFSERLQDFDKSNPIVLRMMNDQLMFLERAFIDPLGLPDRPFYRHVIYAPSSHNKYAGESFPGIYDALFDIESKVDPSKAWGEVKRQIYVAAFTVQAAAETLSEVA

Structure (SMILES): O=C(O)CC[C@H](NC(=O)N[C@@H](CCCCNC(=O)[C@H](Cc1ccc2ccccc2c1)NC(=O)C1CCC(CNC(=O)CN2CCN(CC(=O)O)CCN(CC(=O)O)CCN(CC(=O)O)CC2)CC1)C(=O)O)C(=O)O (stereo partly drawn) [Example C-1, (((S)-1-carboxy-5-((S)-3-(naphthalen-2-yl)-2-((1r,4S)-4-((2-(4,7,10-tris(carboxymethyl)-1,4,7,10-tetraazacyclododecan-1-yl)acetamido)methyl)cyclohexane-1-carboxamido)propanamido)pentyl)carbamoyl)-L-glutamic acid tetra(trifluoroacetic acid), reference compound]
- Relative Binding Affinity (PSMA; based on the mean value of the IC50 number): 1.00
- LogIC50 Mean (PSMA; log10 of IC50 (negative values), nonlin fit, LNCaP cells, ^125I-C-8 radioligand): −8.544
- IC50 (PSMA; nonlin fit, LNCaP cells, ^125I-C-8 radioligand, scientific notation, unit inferred): 2.86 nM
- Relative Binding Affinity (PSMA; relative): 1.00
- % Remaining 0 min ([1]; 0 min): 100%
- % Remaining 1 h ([1]; 1 h): 100%
- % Remaining 4 h ([1]; 4 h): 100%
- % Remaining 24 h ([1]; 24 h): 100%
- % Remaining 48 h ([1]; 48 h): 100%
- % Remaining 72 h ([1]; 72 h): 100%
- T½ (h) ([1]; * = value obtained using nonlinear regression): Stable
- T/K at 4 h (tumor uptake/kidney uptake) ([2]; 4 h): 7.0
- T at 24 h (tumor uptake) ([2]; 24 h): 10.4
- T/K at 24 h (tumor uptake/kidney uptake) ([2]; 24 h): 57
- T at 96 h (tumor uptake) ([2]; 96 h): 7.3
- T/K at 96 h (tumor uptake/kidney uptake) ([2]; 96 h): 182
- T/K at 4 h (tumor uptake/kidney uptake) (LNCap tumor-bearing mice; 4 h): 2.52
- T at 24 h (tumor uptake) (LNCap tumor-bearing mice; 24 h): 10.0
- T/K at 24 h (tumor uptake/kidney uptake) (LNCap tumor-bearing mice; 24 h): 7.04
- T at 96 h (tumor uptake) (LNCap tumor-bearing mice; 96 h): 10.1
- T/K at 96 h (tumor uptake/kidney uptake), *value at 72 h (LNCap tumor-bearing mice; value at 72 h): 15.5*
